Results reported in US11051515B2, “3-acyl-benzamides and their use as herbicides” (Bayer Aktiengesellschaft, priority 2017, dated 2021).

Legend:
[1] = test system: ECHCG; assay: Pre-emergence action against ECHCG; format: in vivo, Echinochloa crus-galli; conditions: pre-emergence, dosage 320 g/ha, scored visually after 3 weeks vs untreated controls
How it was run: (§1)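 Seeds sown in sandy loam in wood-fiber pots and covered with soil. Greenhouse growth; visual damage scored after 3 weeks versus untreated controls (100% = dead, 0% = like control).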

[2] = test system: AMARE; assay: Pre-emergence action against AMARE; format: in vivo, Amaranthus retroflexus; conditions: pre-emergence, dosage 320 g/ha, scored visually after 3 weeks vs untreated controls
How it was run: as §1

[3] = test system: MATIN; assay: Pre-emergence action against MATIN; format: in vivo, Matricaria inodora; conditions: Dosage 320 g/ha, pre-emergence
How it was run: as §1

[4] = test system: STEME; assay: Pre-emergence action against STEME; format: in vivo, Stellaria media; conditions: Dosage 320 g/ha, pre-emergence
How it was run: as §1

[5] = test system: VERPE; assay: Pre-emergence action against VERPE; format: in vivo, Veronica persica; conditions: Dosage 320 g/ha, pre-emergence
How it was run: as §1

[6] = test system: ECHCG; assay: Post-emergence action against ECHCG; format: in vivo, Echinochloa crus-galli; conditions: post-emergence, dosage 80 g/ha, visual assessment about 3 weeks after treatment vs untreated controls
How it was run: (§2)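 Weeds grown in sandy loam in greenhouse, treated at one-leaf stage (2–3 weeks after sowing) with WP or EC formulations sprayed as aqueous suspension/emulsion at 600 to […] water with 0.2% wetting agent. Visual rating after about 3 weeks versus untreated controls, as % herbicidal action (100% = plants dead, 0% = like control).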

[7] = test system: SETVI; assay: Post-emergence action against SETVI; format: in vivo, Setaria viridis; conditions: post-emergence, dosage 80 g/ha, visual assessment about 3 weeks after treatment vs untreated controls
How it was run: as §2

[8] = test system: AMARE; assay: Post-emergence action against AMARE; format: in vivo, Amaranthus retroflexus; conditions: post-emergence, dosage 80 g/ha, visual assessment about 3 weeks after treatment vs untreated controls
How it was run: as §2

[9] = test system: MATIN; assay: Post-emergence action against MATIN; format: in vivo, Matricaria inodora; conditions: post-emergence, dosage 80 g/ha, visual assessment about 3 weeks after treatment vs untreated controls
How it was run: as §2

[10] = test system: PHBPU; assay: Post-emergence action against PHBPU; format: in vivo, Pharbitis purpurea; conditions: post-emergence, dosage 80 g/ha
How it was run: as §2

[11] = test system: POLCO; assay: Post-emergence action against POLCO; format: in vivo, Polygonum convolvulus; conditions: post-emergence, dosage 80 g/ha
Procedure: (§3) Seeds of monocotyledonous and dicotyledonous weed and crop plants are laid out in sandy loam soil in wood-fiber pots, covered with soil and cultivated in a greenhouse under good growth conditions. 2 to 3 weeks after sowing, the test plants are treated at the one-leaf stage. The compounds of the invention, formulated in the form of wettable powders (WP) or as emulsion concentrates (EC), are then sprayed onto the green parts of the plants in the form of an aqueous suspension or emulsion at a water application rate equating to […], with addition of 0.2% wetting agent. After the test plants have been left to stand in the greenhouse under optimal growth conditions for about 3 weeks, the action of the preparations is assessed visually in comparison to untreated controls (herbicidal action in percent (%): 100% activity=the plants have died, 0% activity=like control plants). […] At the same time, inventive compounds leave Gramineae crops such as barley, wheat, rye, millet/Sorghum, corn or rice virtually undamaged when applied post-emergence, even at high active ingredient dosages. In addition, some substances are also harmless to dicotyledonous crops such as soya, cotton, oilseed rape, sugar beet or potatoes. Some of the compounds according to the invention have high selectivity and are therefore suitable for controlling unwanted vegetation in agricultural crops by the post-emergence method. The data of Tables B18 to B34 below illustrate, in an exemplary manner, the […] herbicidal action of the compounds according to the invention, the herbicidal activity being stated in percent.

[12] = test system: STEME; assay: Post-emergence action against STEME; format: in vivo, Stellaria media; conditions: post-emergence, dosage 80 g/ha
How it was run: as §2

[13] = test system: VIOTR; assay: Post-emergence action against VIOTR; format: in vivo, Viola tricolor; conditions: post-emergence, dosage 80 g/ha
How it was run: as §2

[14] = test system: VERPE; assay: Post-emergence action against VERPE; format: in vivo, Veronica persica; conditions: dosage 80 g/ha
How it was run: as §2

[15] = test system: ALOMY; assay: Pre-emergence action against ALOMY; format: in vivo, Alopecurus myosuroides; conditions: dosage 320 g/ha; pre-emergence; scored visually after 3 weeks vs untreated controls; 100% = plants have died, 0% = like control plants
How it was run: as §1

[16] = test system: AVEFA; assay: Pre-emergence action against AVEFA; format: in vivo, Avena fatua; conditions: dosage 320 g/ha, scored visually after 3 weeks vs untreated controls
Excerpt: (§4) Seeds of monocotyledonous and dicotyledonous weed plants and crop plants are laid out in sandy loam soil in wood-fiber pots and covered with soil. The compounds of the invention, formulated in the form of wettable powders (WP) or as emulsion concentrates (EC), are then applied to the surface of the covering soil in the form of an aqueous suspension or emulsion at a water application rate equating to […], with addition of 0.2% wetting agent. After the treatment, the pots are placed in a greenhouse and kept under good growth conditions for the trial plants. The damage to the test plants is scored visually after a test period of 3 weeks by comparison with untreated controls (herbicidal activity in percent (%): 100% activity=the plants have died, 0% activity=like control plants).

[17] = test system: CYPES; assay: Pre-emergence action against CYPES; format: in vivo, Cyperus esculentus; conditions: pre-emergence, dosage 320 g/ha, scored visually after 3 weeks vs untreated controls
How it was run: as §1

[18] = test system: SETVI; assay: Pre-emergence action against SETVI; format: in vivo, Setaria viridis; conditions: pre-emergence, dosage 320 g/ha, scored visually after 3 weeks vs untreated controls
How it was run: as §1

[19] = test system: ABUTH; assay: Pre-emergence action against ABUTH; format: in vivo, Abutilon theophrasti; conditions: pre-emergence, dosage 320 g/ha, scored visually after 3 weeks vs untreated controls
How it was run: as §1

[20] = test system: PHBPU; assay: Pre-emergence action against PHBPU; format: in vivo, Pharbitis purpurea; conditions: Dosage 320 g/ha, pre-emergence
How it was run: as §1

[21] = test system: VIOTR; assay: Pre-emergence action against VIOTR; format: in vivo, Viola tricolor; conditions: Dosage 320 g/ha, pre-emergence
How it was run: as §1

[22] = test system: CYPES; assay: Post-emergence action against CYPES; format: in vivo, Cyperus esculentus; conditions: post-emergence, dosage 80 g/ha, visual assessment about 3 weeks after treatment vs untreated controls
Procedure: as §3

[23] = test system: ABUTH; assay: Post-emergence action against ABUTH; format: in vivo, Abutilon theophrasti; conditions: post-emergence, dosage 80 g/ha, visual assessment about 3 weeks after treatment vs untreated controls
How it was run: as §2

[24] = test system: POLCO; assay: Pre-emergence action against POLCO; format: in vivo, Polygonum convolvulus; conditions: Dosage 320 g/ha, pre-emergence
Excerpt: as §4

Compound | Pre-emergence action against ECHCG (herbicidal activity) [1] | Pre-emergence action against AMARE (herbicidal activity) [2] | Pre-emergence action against MATIN [3] | Pre-emergence action against STEME [4] | Pre-emergence action against VERPE [5] | Post-emergence action against ECHCG (herbicidal action in percent) [6] | Post-emergence action against SETVI (herbicidal action in percent) [7] | Post-emergence action against AMARE (herbicidal action in percent) [8] | Post-emergence action against MATIN (herbicidal action in percent) [9] | Post-emergence action against PHBPU [10] | Post-emergence action against STEME [12] | Post-emergence action against VIOTR [13] | Post-emergence action against VERPE [14] | Pre-emergence action against ALOMY (herbicidal activity in percent) [15] | Pre-emergence action against AVEFA (herbicidal activity) [16] | Pre-emergence action against CYPES (herbicidal activity) [17] | Pre-emergence action against ABUTH (herbicidal activity) [19] | Pre-emergence action against VIOTR [21] | Post-emergence action against CYPES (herbicidal action in percent) [22] | Post-emergence action against ABUTH (herbicidal action in percent) [23] | also measured
CCn1nnnc1NC(=O)c1ccc(C)c(C(C)=O)c1Cl [2-134] | 80% | 100% | 90% | 90% | 100% | 90% | 80% | 90% | 90% | 80 | 100 | 100 | 90 |  |  |  |  |  |  |  | Post-emergence action against POLCO [11]: 80
CCCn1nnnc1NC(=O)c1ccc(C(F)(F)F)c(C(=O)C2CC2)c1OC [3-50] |  | 100% | 100% | 100% | 100% | 100% | 100% | 100% | 100% | 100 | 100 | 100 | 100 | 100% | 100% | 90% | 100% | 100% | 80% | 100% | SETVI (Table B8, pre-emergence herbicidal activity) [18]: 100%; Pre-emergence action against PHBPU [20]: 80%
CCCn1nnnc1NC(=O)c1ccc(C(F)(F)F)c(C(C)=O)c1SC [3-58] | 100% | 100% | 100% | 90% | 90% | 100% | 80% | 100% | 100% | 90 | 100 | 100 | 80 | 90% | 80% | 90% | 100% | 100% | 100% | 100% | Pre-emergence action against POLCO [24]: 80%
CCCn1nnnc1NC(=O)c1ccc(I)c(C(C)=O)c1Cl [3-192] | 100% | 100% | 100% | 100% |  | 100% | 100% | 80% | 100% | 80 | 100 | 100 |  | 90% | 90% | 100% | 100% | 100% | 80% | 100% | SETVI (Table B8, pre-emergence herbicidal activity) [18]: 100%; Pre-emergence action against PHBPU [20]: 100%
CCCn1nnnc1NC(=O)c1ccc(C(F)(F)F)c(C(=O)C2CC2)c1Br [3-197] | 100% | 100% | 100% | 100% | 100% | 90% | 90% | 100% | 90% | 100 | 100 | 100 | 80 | 90% | 90% | 80% | 100% | 100% | 90% | 90% | SETVI (Table B8, pre-emergence herbicidal activity) [18]: 100%; Pre-emergence action against PHBPU [20]: 90%
